Assays:
venous malformation = assay: Electrosclerotherapy case, Example 2 (patient, photographs, 3 years follow-up)
[1] = tested on: symptomatic venous malformation of the left thigh; assay: Electrosclerotherapy case, Example 1 (patient, MRI follow-up); assay type: in vivo, human; settings: 1.5 mg bleomycin
Procedure: FIGS. 1A and 1C show magnetic resonance of a symptomatic venous malformation of the left thigh in a patient previously treated with surgery and sclerotherapy;
FIGS. 1B and 1D show magnetic resonance of the symptomatic venous malformation of FIG. 1A three months after one electrosclerotherapy session.
A patient with a symptomatic venous malformation of the left thigh, causing swelling, pain, and partial immobility, recurring after surgery and sclerotherapy with Aethoxysklerol was treated with electrosclerotherapy using custom geometry electrodes and 1.5 mg bleomycin. […] Volume of the lesion before treatment: 26.79 cm^3; volume of the lesion after treatment: 0.00 cm^3.

[2] = tested on: venous malformations that did not respond to previous invasive therapies; settings: 17 patients, cited from earlier work

Compound	outcome of sclerotherapy (venous malformation; 7 sessions of ethanol sclerotherapy, without electric pulses)	magnetic resonance imaging outcome of the malformation ([1]; custom geometry electrodes, 3 months after one session of electrosclerotherapy)	adverse events ([1]; one electrosclerotherapy session)	volume of the lesion after treatment ([1]; one electrosclerotherapy session, volume before treatment 26.79 cm^3) [cm^3]	functionality of nerves (venous malformation; 2 sessions of electrosclerotherapy, finger electrode, 2 mg of Bleomycin per session, 3 years follow-up)	clinical improvement ([2]; after an average of 3.7 months and 1.12 sessions per patient)	decrease in lesion volume on magnetic resonance imaging (average) ([2]; bleomycin in combination with reversible electroporation, average 3.7 months and 1.12 sessions per patient) [%]
CCO [ethanol]	unsuccessfully treated	–	–	–	–	–	–
bleomycin	–	complete resolution of the malformation	No documented adverse events	0.00	Functionality of nerves is preserved	clinical improvement in all patients	86

— patent publication US20250152936A1, “METHOD FOR THE TREATMENT OF VASCULAR ANOMALIES BY ADMINISTERING ONE OR MORE SCLEROSING AGENTS AND APPLYING A SERIES OF ELECTRIC PULSES” (IGEA S.P.A., priority 2023, published 2025)
